≈ marks a conversion by molar mass, not a printed value.
Columns and labels:
Type in all cases: functional, cell-based
[1] = test system: HeLa; experiment: Cytotoxicity against Homo sapiens (human) HeLa cells by MTT assay
[2] = test system: Vero; experiment: Cytotoxicity against Chlorocebus aethiops (African green monkey) Vero cells by MTT assay; settings: Chlorocebus sabaeus
[3] = test system: Erythrocyte; experiment: Hemolytic activity in Homo sapiens (human) Erythrocyte after 30 min; settings: 0.5 h

Compound | IC50 [1] [mg/L] | IC50 [2] [mg/L] | EC50 [3] [mg/L]
CC[C@@]1(O)C(=O)OCc2c1cc1n(c2=O)Cc2cc3ccccc3nc2-1 [CAMPTOTHECIN] | 0.28 (≈ 0.804 µM) | 58 (≈ 166 µM) | 430 (≈ 1230 µM)
Cc1ccc2c3c([nH]c2c1)-c1nc2ccc(Cl)cc2c(-c2ccccc2)c1CC3 | > 100 | > 100 | 409 (≈ 1030 µM)
Cc1ccc2[nH]c3c(c2c1)CCc1c-3nc2ccc(Cl)cc2c1-c1ccccc1 | > 100 | > 100 | 212 (≈ 537 µM)
Cc1cccc2c3c([nH]c12)-c1nc2ccc(Cl)cc2c(-c2ccccc2)c1CC3 | > 100 | > 100 | 458 (≈ 1160 µM)
